This test has as its target T1, c-Abl (Homo sapiens, UniProt P00519).
T1 construct: The His-tagged kinase domain of c-Abl is cloned and expressed in the baculovirus/Sf9 system; His; made in house; host or cells: baculovirus/Sf9
T1 sequence (P00519 242-493 limits assumed): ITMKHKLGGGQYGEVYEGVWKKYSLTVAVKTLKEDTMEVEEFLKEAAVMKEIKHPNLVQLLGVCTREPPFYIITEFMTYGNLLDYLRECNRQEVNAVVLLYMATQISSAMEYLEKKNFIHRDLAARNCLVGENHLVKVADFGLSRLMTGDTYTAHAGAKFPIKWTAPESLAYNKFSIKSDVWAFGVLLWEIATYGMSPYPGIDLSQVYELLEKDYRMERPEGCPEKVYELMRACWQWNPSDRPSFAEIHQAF
Nature of the test: Test for activity against c-Abl protein tyrosine kinase (filter binding assay). Format: biochemical. As to the method:
Test for activity against c-Abl protein tyrosine kinase. The test is conducted as a filter binding assay as follows: The His-tagged kinase domain of c-Abl is cloned and expressed in the baculovirus/Sf9 system as described by Bhat et al., J. Biol. Chem. 272, 16170-5 (1997). A protein of 37 kD (c-Abl kinase) is purified by a two-step procedure over a cobalt metal chelate column followed by an anion exchange column with a yield of 1-2 mg/L of Sf9 cells. The purity of the c-Abl kinase is >90% as judged by SDS-PAGE after Coomassie blue staining. The assay contains: c-Abl kinase (50 ng), 20 mM Tris.HCl, pH 7.5, 10 mM MgCl2, 10 μM Na3VO4, 1 mM DTT and 0.06 μCi/assay [γ^33 P]-ATP (5 μM ATP) using 30 μg/mL poly-Ala,Glu,Lys,Tyr-6:2:5:1 (Poly-AEKY, Sigma P1152) in the presence of 1% DMSO, total volume of 30 μL. Reactions are terminated by adding 10 μL of 250 mM EDTA, and 30 μL of the reaction mixture is transferred onto Immobilon-PVDF membrane (Millipore, Bedford, Mass., USA) previously soaked for 5 min with methanol, rinsed with water, then soaked for 5 min with 0.5% H3PO4 and mounted on vacuum manifold with disconnected vacuum source. After spotting all samples, vacuum is connected and each well rinsed with 200 μL 0.5% H3PO4. Membranes are removed and washed on a shaker with 0.5% H3PO4 (4 times) and once with ethanol. Membranes are counted after drying at ambient temperature, mounting in Packard TopCount 96-well frame, and addition of 10 μL/well of Microscint™ (Packard).
For `CN1CCN(C(=O)c2ccc(-c3cc4c(N(C)C)ncnc4[nH]3)cc2)CC1` [Example 3, [4-(4-Dimethylamino-7H-pyrrolo[2,3-d]pyrimidin-6-yl)-phenyl]-(4-methyl-piperazin-1-yl)-methanone], the IC50 (in general, the midpoint of a concentration-inhibition curve) came out at 19 nM. As for `CN1CCN(Cc2ccc(-c3cc4c(N(C)C)ncnc4[nH]3)cc2)CC1` [Example 4, Dimethyl-{6-[4-(4-methyl-piperazin-1-ylmethyl)-phenyl]-7H-pyrrolo[2,3-d]pyrimidin-4-yl}-amine], the figure is 32 nM; as for `CCN(CC)CCCNC(=O)c1ccc(-c2cc3c(N(C)C)ncnc3[nH]2)cc1` [Example 5, N-(3-Diethylamino-propyl)-4-(4-dimethylamino-7H-pyrrolo[2,3-d]pyrimidin-6-yl)-benzamide], 21 nM; as for `CN(C)c1ncnc2[nH]c(-c3ccc(C(=O)N4CCOCC4)cc3)cc12` [Example 6, [4-(4-Dimethylamino-7H-pyrrolo[2,3-d]pyrimidin-6-yl)-phenyl]-morpholin-4-yl-methanone], 2.6 nM. For `CN(C)c1ncnc2[nH]c(-c3ccc(C(=O)NCCCN4CCOCC4)cc3)cc12` [Example 7, 4-(4-Dimethylamino-7H-pyrrolo[2,3-d]pyrimidin-6-yl)-N-(3-morpholin-4-yl-propyl)-benzamide] the value was 25 nM; for `CNc1ncnc2[nH]c(-c3ccc(C(=O)N4CCN(C)CC4)cc3)cc12` [Example 12, [4-(4-Methylamino-7H-pyrrolo[2,3-d]pyrimidin-6-yl)-phenyl]-(4-methyl-piperazin-1-yl)-methanone], 4 nM; for `CN1CCN(C(=O)c2ccc(-c3cc4c(NCCCO)ncnc4[nH]3)cc2)CC1` [Example 15, {4-[4-(3-Hydroxy-propylamino)-7H-pyrrolo[2,3-d]pyrimidin-6-yl]-phenyl}-(4-methyl-piperazin-1-yl)-methanone], 14 nM.

For `CNc1ncnc2[nH]c(-c3ccc(CN4CCN(C)CC4)cc3)cc12` [Example 16, Methyl-{6-[4-(4-methyl-piperazin-1-ylmethyl)-phenyl]-7H-pyrrolo[2,3-d]pyrimidin-4-yl}-amine], the IC50 was 11 nM.

In turn, `CCCNc1ncnc2[nH]c(-c3ccc(C(=O)N4CCN(C)CC4)cc3)cc12` [Example 17, (4-Methyl-piperazin-1-yl)-[4-(4-propylamino-7H-pyrrolo[2,3-d]pyrimidin-6-yl)-phenyl]-methanone] gave an IC50 of 5 nM.

Take `CCCNc1ncnc2[nH]c(-c3ccc(CN4CCN(C)CC4)cc3)cc12` [Example 18, {6-[4-(4-Methyl-piperazin-1-ylmethyl)-phenyl]-7H-pyrrolo[2,3-d]pyrimidin-4-yl}-propyl-amine]: the IC50 was determined as 6 nM. For `CCCN(C)c1ncnc2[nH]c(-c3ccc(CN4CCN(C)CC4)cc3)cc12` [Example 19, Methyl-{6-[4-(4-methyl-piperazin-1-ylmethyl)-phenyl]-7H-pyrrolo[2,3-d]pyrimidin-4-yl}-propyl-amine] the value was 11 nM; for `CN(C)c1ncnc2[nH]c(-c3ccc(Cn4ccnc4)cc3)cc12` [Example 24, [6-(4-Imidazol-1-ylmethyl-phenyl)-7H-pyrrolo[2,3-d]pyrimidin-4-yl]-dimethylamine], 11 nM.

As for `CN(C)c1ncnc2[nH]c(-c3ccc(Cc4ccc[nH]4)cc3)cc12` [Example 25, Dimethyl-{6-[4-(1H-pyrrol-2-ylmethyl)-phenyl]-7H-pyrrolo[2,3-d]pyrimidin-4-yl}-amine], the concentration for half-maximal inhibition (IC50) worked out at 9 nM.

In turn, `CN(C)c1ncnc2[nH]c(-c3ccc(Cn4cnnn4)cc3)cc12` [Example 27, Dimethyl-[6-(4-tetrazol-1-ylmethyl-phenyl)-7H-pyrrolo[2,3-d]pyrimidin-4-yl]-amine] yielded an IC50 of 10 nM. For `CCC(O)(CC)c1ccc(-c2cc3c(NCCCn4cccc4)ncnc3[nH]2)cc1` [Example 33, 3-{4-[4-(3-Pyrrol-1-yl-propylamino)-7H-pyrrolo[2,3-d]pyrimidin-6-yl]-phenyl}-pentan-3-ol] the value was 130 nM.

For `CN(C)c1ncnc2[nH]c(-c3ccc(C(C)(C)O)cc3)cc12` [Example 34, 2-[4-(4-Dimethylamino-7H-pyrrolo[2,3-d]pyrimidin-6-yl)-phenyl]-propan-2-ol], the IC50 was determined as 21 nM.

In turn, `CNc1ncnc2[nH]c(-c3ccc(C(C)(C)O)cc3)cc12` [Example 35, 2-[4-(4-Methylamino-7H-pyrrolo[2,3-d]pyrimidin-6-yl)-phenyl]-propan-2-ol] yielded an IC50 of 10 nM.

Compound “[4-(4-Methylamino-7H-pyrrolo[2,3-d]pyrimidin-6-yl)-phenyl]-morpholin-4-yl-methanone [Example 2]” gave a 50% inhibitory concentration (IC50) of 35 nM.

The values above are taken from patent publication US7625894B2, “Pyrrolo[2,3-d]Pyrimidines as Protein Tyrosine Kinase Inhibitors” (Novartis AG, priority 2004, dated 2009).
